Experiments:
BA/F3 (insSVD) cells = experiment: Ba/F3 cell survival assay (Cell Titer-Glo), EGFR-insSVD; format: cell-based; settings: Mus musculus, BaF3, 48 h, without IL-3, with EGF
Procedure, shortened: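 Viability read by CellTiter-Glo luminescence after 48 h compound exposure at 37° C, 4000 cells/well. Retrovirally transduced, puromycin-selected Ba/F3 lines carrying EGFR-insSVD ± T790M grew IL-3-free with 10 ng/mL EGF for 2 days beforehand; compound delivered by 100 nL pin.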

[1] = molecular target: mutEGFR (D770_N771insNPG, T790); experiment: mutEGFR (D770_N771insNPG, T790) kinase assay; format: biochemical, human
mutEGFR (D770_N771insNPG, T790), sequence (P00533 with tags, fused parts or gaps INS770NPG limits assumed): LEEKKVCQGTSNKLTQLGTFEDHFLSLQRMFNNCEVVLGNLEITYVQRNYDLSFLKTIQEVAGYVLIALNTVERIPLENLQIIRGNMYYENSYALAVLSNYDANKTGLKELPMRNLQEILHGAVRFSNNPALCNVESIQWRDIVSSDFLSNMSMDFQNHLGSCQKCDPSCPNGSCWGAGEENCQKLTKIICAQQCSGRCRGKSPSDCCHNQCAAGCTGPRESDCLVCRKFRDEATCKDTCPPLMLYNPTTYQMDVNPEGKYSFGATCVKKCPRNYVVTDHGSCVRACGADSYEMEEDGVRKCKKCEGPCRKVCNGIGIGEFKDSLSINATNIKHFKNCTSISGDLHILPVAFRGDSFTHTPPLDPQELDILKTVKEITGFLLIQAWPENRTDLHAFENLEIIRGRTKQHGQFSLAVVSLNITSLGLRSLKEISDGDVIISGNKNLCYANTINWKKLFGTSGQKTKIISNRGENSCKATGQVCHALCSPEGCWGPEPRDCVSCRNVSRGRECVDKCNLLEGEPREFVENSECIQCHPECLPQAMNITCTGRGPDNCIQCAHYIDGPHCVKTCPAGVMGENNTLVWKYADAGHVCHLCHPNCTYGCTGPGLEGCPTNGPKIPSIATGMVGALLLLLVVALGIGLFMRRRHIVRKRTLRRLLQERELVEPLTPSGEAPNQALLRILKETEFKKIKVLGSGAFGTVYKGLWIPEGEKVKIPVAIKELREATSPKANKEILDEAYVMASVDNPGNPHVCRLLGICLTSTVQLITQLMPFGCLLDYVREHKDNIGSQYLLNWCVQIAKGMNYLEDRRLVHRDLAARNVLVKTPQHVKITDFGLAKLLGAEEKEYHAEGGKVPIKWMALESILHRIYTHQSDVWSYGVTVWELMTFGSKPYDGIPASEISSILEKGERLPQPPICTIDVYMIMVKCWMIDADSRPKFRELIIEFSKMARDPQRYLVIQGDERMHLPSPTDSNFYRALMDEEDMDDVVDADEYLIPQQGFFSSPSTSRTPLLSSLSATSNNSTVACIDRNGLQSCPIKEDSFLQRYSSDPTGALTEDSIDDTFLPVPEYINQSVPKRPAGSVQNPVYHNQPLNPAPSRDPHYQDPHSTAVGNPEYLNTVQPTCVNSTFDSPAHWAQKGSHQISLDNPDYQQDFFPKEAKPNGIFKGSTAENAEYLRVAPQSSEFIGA

[2] = molecular target: mutEGFR (D770_N771insSVD) (Homo sapiens, UniProt P00533, INS767SVD); experiment: Exon20-mutant-EGFR (D770_N771insSVD) TR-FRET kinase assay; format: biochemical; settings: 2 mM ATP, 15 min preincubation
mutEGFR (D770_N771insSVD), sequence (P00533 with tags, fused parts or gaps INS767SVD limits assumed): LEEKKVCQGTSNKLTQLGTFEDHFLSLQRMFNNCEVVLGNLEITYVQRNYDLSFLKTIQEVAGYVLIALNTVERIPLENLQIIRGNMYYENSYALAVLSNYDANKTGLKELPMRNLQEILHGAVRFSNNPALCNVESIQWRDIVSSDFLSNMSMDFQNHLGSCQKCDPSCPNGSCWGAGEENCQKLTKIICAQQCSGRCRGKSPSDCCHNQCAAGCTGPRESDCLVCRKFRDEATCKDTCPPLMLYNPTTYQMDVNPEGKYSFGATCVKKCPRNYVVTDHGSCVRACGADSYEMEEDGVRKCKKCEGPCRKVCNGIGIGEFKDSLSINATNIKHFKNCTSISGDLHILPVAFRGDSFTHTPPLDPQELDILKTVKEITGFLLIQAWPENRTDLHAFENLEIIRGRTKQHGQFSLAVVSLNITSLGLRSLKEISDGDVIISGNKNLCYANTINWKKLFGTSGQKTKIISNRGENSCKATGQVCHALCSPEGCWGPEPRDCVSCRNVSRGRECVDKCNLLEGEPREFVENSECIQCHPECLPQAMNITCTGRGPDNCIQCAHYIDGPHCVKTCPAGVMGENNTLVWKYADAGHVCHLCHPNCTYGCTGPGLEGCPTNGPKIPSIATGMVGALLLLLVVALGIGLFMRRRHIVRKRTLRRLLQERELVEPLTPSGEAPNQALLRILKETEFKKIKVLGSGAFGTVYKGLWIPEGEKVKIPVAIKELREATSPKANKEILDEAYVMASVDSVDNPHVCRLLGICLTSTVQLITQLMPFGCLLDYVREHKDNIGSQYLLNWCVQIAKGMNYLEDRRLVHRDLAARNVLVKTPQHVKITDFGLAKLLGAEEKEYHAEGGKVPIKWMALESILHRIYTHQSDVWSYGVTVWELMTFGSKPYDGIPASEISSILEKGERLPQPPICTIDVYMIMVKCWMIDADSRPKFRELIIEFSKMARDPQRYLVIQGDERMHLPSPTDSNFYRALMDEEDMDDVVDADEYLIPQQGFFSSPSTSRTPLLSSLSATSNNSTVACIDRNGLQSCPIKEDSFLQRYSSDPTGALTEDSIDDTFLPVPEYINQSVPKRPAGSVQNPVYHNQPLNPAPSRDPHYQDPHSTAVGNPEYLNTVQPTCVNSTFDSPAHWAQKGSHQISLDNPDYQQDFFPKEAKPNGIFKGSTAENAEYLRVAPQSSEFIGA
Procedure, shortened: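 GST-fused human EGFR fragment R669-A1210 carrying the SVD insertion, Sf9-expressed, typically 15 pg/μl, was preincubated with compound for 15 min at 22° C in pH 7.0 Hepes/MgCl2 buffer. Phosphorylation was read by HTRF (665/620 nm ratio), normalised to no-inhibitor and no-enzyme controls.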

| SMILES | IC50 (BA/F3 (insSVD) cells) | IC50 [1] | IC50 [2] |
| --- | --- | --- | --- |
| C=CC(=O)N1C[C@@H](C)C[C@H]1COc1cnccc1-c1[nH]c2cccnc2c1-c1ccccc1 [Example 110, 1-[(2S,4S)-4-methyl-2-({[4-(3-phenyl-1H-pyrrolo[3,2-b]pyridin-2-yl)pyridin-3-yl]oxy}methyl)pyrrolidin-1-yl]prop-2-en-1-one] | 37.5 nM | 5.97 nM | 1.27 nM |
| C=CC(=O)N1CC(F)(F)C[C@H]1COc1cnccc1-c1[nH]c2cccnc2c1-c1ccccc1 [Example 112, 1-[(2S)-4,4-difluoro-2-({[4-(3-phenyl-1H-pyrrolo[3,2-b]pyridin-2-yl)pyridin-3-yl]oxy}methyl)pyrrolidin-1-yl]prop-2-en-1-one] | 17.5 nM | 0.979 nM | 0.215 nM |
| C=CC(=O)N1C=C(F)C[C@H]1COc1cnccc1-c1[nH]c2cccnc2c1-c1ccccc1 [Example 113, 1-[(2S)-4-fluoro-2-({[4-(3-phenyl-1H-pyrrolo[3,2-b]pyridin-2-yl)pyridin-3-yl]oxy}methyl)-2,3-dihydro-1H-pyrrol-1-yl]prop-2-en-1-one] | 9.99 nM | 0.724 nM | 0.114 nM |
| C=CC(=O)N1C[C@@H](F)C[C@H]1COc1cnccc1-c1[nH]c2cccnc2c1-c1ccccc1 [Example 114, 1-[(2S,4S)-4-fluoro-2-({[4-(3-phenyl-1H-pyrrolo[3,2-b]pyridin-2-yl)pyridin-3-yl]oxy}methyl)pyrrolidin-1-yl]prop-2-en-1-one] | 38.9 nM | 4.35 nM | 0.96 nM |
| C=CC(=O)N1CC=C[C@H]1COc1cnccc1-c1[nH]c2cccnc2c1-c1ccccc1 [Example 115, 1-[(2S)-2-({[4-(3-phenyl-1H-pyrrolo[3,2-b]pyridin-2-yl)pyridin-3-yl]oxy}methyl)-2,5-dihydro-1H-pyrrol-1-yl]prop-2-en-1-one] | 12.2 nM | 0.875 nM | 0.281 nM |
| C#CC(=O)N1CC[C@@H](Oc2cnccc2-c2[nH]c3cccnc3c2-c2cc(Cl)ccc2F)C1 [Example 128, 1-[(3R)-3-({4-[3-(5-chloro-2-fluorophenyl)-1H-pyrrolo[3,2-b]pyridin-2-yl]pyridin-3-yl}oxy)pyrrolidin-1-yl]prop-2-yn-1-one] | 765 nM | 208 nM | 63 nM |
| C=CC(=O)N1CCC[C@H]1COc1cncc(F)c1-c1[nH]c2cccnc2c1-c1cc(Cl)ccc1F [Example 129, 1-{(2S)-2-[({4-[3-(5-chloro-2-fluorophenyl)-1H-pyrrolo[3,2-b]pyridin-2-yl]-5-fluoropyridin-3-yl}oxy)methyl]pyrrolidin-1-yl}prop-2-en-1-one] | 110 nM | 92.6 nM | 1 nM |
| C=CC(=O)N1CCC[C@H]1COc1cnccc1-c1[nH]c2c(C)ccnc2c1-c1ccccc1 [Example 135, 1-[(2S)-2-({[4-(7-methyl-3-phenyl-1H-pyrrolo[3,2-b]pyridin-2-yl)pyridin-3-yl]oxy}methyl)pyrrolidin-1-yl]prop-2-en-1-one] | 16.1 nM | 1.83 nM | 0.589 nM |
| C=CS(=O)(=O)N1CCC[C@H]1COc1cnccc1-c1[nH]c2c(C)ccnc2c1-c1ccccc1 [Example 136, 2-(3-{[(2S)-1-(ethenesulfonyl)pyrrolidin-2-yl]methoxy}pyridin-4-yl)-7-methyl-3-phenyl-1H-pyrrolo[3,2-b]pyridine] | 8.43 nM | 0.706 nM | 0.214 nM |
| C=CC(=O)N1CCC[C@H]1COc1cnccc1-c1[nH]c2c(C)ccnc2c1-c1cc(Cl)ccc1F [Example 137, 1-{(2S)-2-[({4-[3-(5-chloro-2-fluorophenyl)-7-methyl-1H-pyrrolo[3,2-b]pyridin-2-yl]pyridin-3-yl}oxy)methyl]pyrrolidin-1-yl}prop-2-en-1-one] | 25.1 nM | 1.55 nM | 0.724 nM |
| C=CS(=O)(=O)N1CCC[C@H]1COc1cnccc1-c1[nH]c2c(C)ccnc2c1-c1cc(Cl)ccc1F [Example 138, 3-(5-chloro-2-fluorophenyl)-2-(3-{[(2S)-1-(ethenesulfonyl)pyrrolidin-2-yl]methoxy}pyridin-4-yl)-7-methyl-1H-pyrrolo[3,2-b]pyridine] | 27 nM | 1.36 nM | 0.582 nM |
| C=CS(=O)(=O)N1CC[C@@]1(C)COc1cnccc1-c1[nH]c2cccnc2c1-c1ccccc1 [Example 146, 2-(3-{[(2S)-1-(ethenesulfonyl)-2-methylazetidin-2-yl]methoxy}pyridin-4-yl)-3-phenyl-1H-pyrrolo[3,2-b]pyridine] | 1240 nM | 265 nM | 32.7 nM |
| C=CC(=O)N1CCC1(C)COc1cnccc1-c1[nH]c2cccnc2c1-c1cccc(C(F)(F)F)c1 (stereo not drawn) [Example 147, 1-[(2IRS)-2-methyl-2-{[(4-{3-[3-(trifluoromethyl)phenyl]-1H-pyrrolo[3,2-b]pyridin-2-yl}pyridin-3-yl)oxy]methyl}azetidin-1-yl]prop-2-en-1-one] | 6530 nM | 3680 nM | 699 nM |
| C=CC(=O)N1CCOCC1COc1cnccc1-c1[nH]c2cccnc2c1-c1ccccc1 (stereo not drawn) [Example 149, 1-[3-({[4-(3-phenyl-1H-pyrrolo[3,2-b]pyridin-2-yl)pyridin-3-yl]oxy}methyl)morpholin-4-yl]prop-2-en-1-one] | 1290 nM | 17700 nM | 775 nM |
| CN(C)C/C=C/C(=O)N1CCOCC1COc1cnccc1-c1[nH]c2cccnc2c1-c1ccccc1 (stereo not drawn) [Example 150, (2E)-4-(dimethylamino)-1-[3-({[4-(3-phenyl-1H-pyrrolo[3,2-b]pyridin-2-yl)pyridin-3-yl]oxy}methyl)morpholin-4-yl]but-2-en-1-one] | 9810 nM | > 20000 nM | 4660 nM |
| C=CC(=O)N1CCOCC1COc1cnccc1-c1[nH]c2cccnc2c1-c1cc(Cl)ccc1F (stereo not drawn) [Example 151, 1-{3-[({4-[3-(5-chloro-2-fluorophenyl)-1H-pyrrolo[3,2-b]pyridin-2-yl]pyridin-3-yl}oxy)methyl]morpholin-4-yl}prop-2-en-1-one] | 282 nM | 81.1 nM | 11 nM |
| CN(C)C/C=C/C(=O)N1CCOCC1COc1cnccc1-c1[nH]c2cccnc2c1-c1cc(Cl)ccc1F (stereo not drawn) [Example 152, (2E)-1-{3-[({4-[3-(5-chloro-2-fluorophenyl)-1H-pyrrolo[3,2-b]pyridin-2-yl]pyridin-3-yl}oxy)methyl]morpholin-4-yl}-4-(dimethylamino)but-2-en-1-one] | 1880 nM | 353 nM | 164 nM |

— patent US20260035365A1, “1H-PYRROLO[3,2-B]PYRIDINE DERIVATIVES AS IRREVERSIBLE INHIBITORS OF MUTANT EGFR FOR THE TREATMENT OF CANCER” (Bayer Aktiengesellschaft, priority 2022, published 2026)
